Where two headings read alike, the source gives them in different places.
Assays:
[1] = system: Peronospora parasitica; assay: In vivo preventive test on Peronospora parasitica (Crucifer downy mildew) on cabbage; conditions: Hyaloperonospora parasitica, 120 h, sprayed 72 hours before inoculation, evaluated 5 days after inoculation, read-out: efficacy; for pest or weed control at 31 ppm: 31 ppm of active ingredient; for pest or weed control at 125 ppm: 125 ppm of active ingredient; for pest or weed control at 500 ppm: 500 ppm of active ingredient
Procedure, shortened: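 Young cabbage plants were sprayed with compound in aqueous acetone/DMSO/Tween, then inoculated 72 h later with P. parasitica spores and held 5 days at 20 °C, 100% RH. Efficacy scored 5 days post-inoculation: 0% equals solvent-treated controls, 100% means no disease.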

[2] = system: Colletotrichum lindemuthianum; assay: Colletotrichum lindemuthianum in vitro cell test; assay type: cell-based; conditions: 144 h, 6 days incubation, read-out: efficacy (inhibition of fungal growth; no direct activity); for inhibition at 5 ppm: 5 ppm of active ingredient; for inhibition at 20 ppm: 20 ppm of active ingredient
Procedure, shortened: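 C. lindemuthianum spore suspension grown in liquid glucose/peptone/yeast-extract medium with compound (final DMSO ≤1%). After 6 days, mycelial growth measured by absorbance; inhibition calculated versus fungicide-free control wells.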

[3] = system: salicylate responsive promoter sequence of the PR1 (pathogenesis-related protein I) gene (AT2G14610); assay: Induction of defense gene expression in Arabidopsis thaliana (PR1 promoter-GFP reporter plants); assay type: in vivo; conditions: 72 h, 3rd day after spraying, mock treated leaves set as 1.00, read-out: relative fluorescence value
Procedure, shortened: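 Transgenic A. thaliana carrying GFP under the salicylate-responsive PR1 promoter, grown five days, then sprayed with compounds. Whole-plant fluorescence imaged and quantified on day 3 post-spray, expressed relative to mock-treated leaf background set at 1.00.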

[4] = system: Pseudomonas syringae pv. tomato; assay: In vivo preventive test on Pseudomonas syringae pv. tomato (bacterial speck on tomato); conditions: sprayed 72 hours before inoculation, evaluated 5 or 6 days after inoculation, read-out: efficacy; for pest or weed control at 500 ppm: 500 ppm of active ingredient; for pest or weed control at 31 ppm: 31 ppm of active ingredient; for pest or weed control at 125 ppm: 125 ppm of active ingredient
Experimental: The tested active ingredients were prepared by homogenization in a mixture of acetone/Dimethyl sulfoxide/Tween®, and then diluted with water to obtain the desired active material concentration.
The young plants of tomato were treated by spraying the active ingredient prepared as described above. Control plants were treated only with an aqueous solution of acetone/Dimethyl sulfoxide/Tween®.
After 72 hours, the plants were contaminated by spraying the leaves with an aqueous bacteria suspension of Pseudomonas syringae pv. tomato. The contaminated tomato plants were incubated for 4 days in saturated atmosphere at 22° C. day/20° C. night−70% HR and then for 1 or 2 days at 22° C. day/20° C. night at 70-80% relative humidity.
The test was evaluated 5 or 6 days after the inoculation. 0% means an efficacy which corresponds to that of the control plants while an efficacy of 100% means that no disease was observed.

[5] = system: Uromyces appendiculatus; assay: In vivo preventive test on Uromyces appendiculatus (bean rust); conditions: 240 h, sprayed 72 hours before inoculation, evaluated 10 days after inoculation, read-out: efficacy; for pest or weed control at 31 ppm: 31 ppm of active ingredient; for pest or weed control at 125 ppm: 125 ppm of active ingredient; for pest or weed control at 500 ppm: 500 ppm of active ingredient
Procedure, shortened: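 Young bean plants sprayed with compound in acetone/DMSO/Tween diluted in water, then inoculated 72 h later with spore suspension. Incubated 24 h at 20° C., 100% RH, then 9 days at 20° C., 70-80% RH. Efficacy scored 10 days post-inoculation, 0% = untreated-control level, 100% = no disease.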

[6] = LogP by HPLC on reversed phase columns (EEC directive 79/831 Annex V.A8); assay type: physicochemical; conditions: reversed phase HPLC columns
Procedure, shortened: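 Reversed-phase HPLC, calibrated with straight-chain alkan-2-ones (C3–C16) of known LogP; values by linear interpolation of retention times between successive alkanones. Multiple values from one method are joined by "+"; lambda-max taken from 200–400 nm UV spectra at chromatographic peaks.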

[7] = system: Alternaria alternata; assay: Alternaria alternata in vitro cell test; assay type: cell-based; conditions: 120 h, 5 days incubation, read-out: efficacy (inhibition of fungal growth; no direct activity); for inhibition at 5 ppm: 5 ppm of active ingredient; for inhibition at 20 ppm: 20 ppm of active ingredient
Procedure, shortened: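 A. alternata spores in glucose/peptone/yeast-extract liquid medium were exposed to DMSO-solubilized compound (final DMSO ≤1%). After 5 days incubation, mycelium growth read spectrometrically; inhibition derived from absorbance relative to fungicide-free control wells.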

[8] = system: Colletotrichum lindemuthianum; assay: In vivo preventive test on Colletotrichum lindemuthianum (Anthracnose on bean); conditions: Colletotrichum lindemuthianum, 144 h, sprayed 72 hours before inoculation, evaluated 6 days after inoculation, read-out: efficacy; for pest or weed control at 500 ppm: 500 ppm of active ingredient; for pest or weed control at 31 ppm: 31 ppm of active ingredient; for pest or weed control at 125 ppm: 125 ppm of active ingredient
Procedure, shortened: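 Young bean plants were sprayed with compound in acetone/DMSO/Tween diluted in water, then inoculated 72 h later with C. lindemuthianum spores. Incubation was 24 h at 20 °C/100% RH, then 5 days at 20 °C/90% RH. Efficacy scored 6 days post-inoculation: 0% equals solvent-treated control, 100% means no disease.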

[9] = preparation examples, method not indicated, read-out: Log P

| SMILES | chromatographic logP ([6]; method [a]) | chromatographic logP [6, 9] | pest or weed control at 31 ppm [1] [%] | pest or weed control at 125 ppm [1] [%] | pest or weed control at 500 ppm [1] [%] | inhibition at 5 ppm [2] [%] | fold induction at 75 ppm [3] | fold induction at 300 ppm [3] | pest or weed control at 500 ppm [4] [%] | pest or weed control at 31 ppm [5] [%] | pest or weed control at 125 ppm [5] [%] | pest or weed control at 500 ppm [5] [%] | inhibition at 5 ppm [7] [%] | inhibition at 20 ppm [7] [%] | pest or weed control at 500 ppm [8] [%] | pest or weed control at 31 ppm [4] [%] | pest or weed control at 125 ppm [4] [%] | pest or weed control at 31 ppm [8] [%] | pest or weed control at 125 ppm [8] [%] | inhibition at 20 ppm [2] [%] |
| --- | --- | --- | --- | --- | --- | --- | --- | --- | --- | --- | --- | --- | --- | --- | --- | --- | --- | --- | --- | --- |
| COC(=O)C(NC(=O)c1sc(Br)c(Br)c1C)C1CC1 (stereo not shown) [I.032] | 3.41 | – | 80 to 89 | 90 to 100 | 90 to 100 | ≤ 30 | > 2 | > 2 | 70 to 79 | 90 to 100 | 90 to 100 | 90 to 100 | ≤ 30 | ≤ 30 | 70 to 79 | – | – | – | – | – |
| CCOC(=O)C1(NC(=O)c2sc(Cl)c(Cl)c2C)CCC1 [I.047] | 3.67 | – | 90 to 100 | 90 to 100 | 90 to 100 | ≤ 30 | – | > 2 | – | 80 to 89 | 90 to 100 | 90 to 100 | ≤ 30 | ≤ 30 | 90 to 100 | 70 to 79 | 90 to 100 | 90 to 100 | 90 to 100 | – |
| Cc1c(C(=S)NC2(C(=O)O)CC2)sc(Cl)c1Cl [I.060] | 2.84 | – | 90 to 100 | 90 to 100 | 90 to 100 | ≤ 30 | > 2 | > 2 | 70 to 79 | 90 to 100 | 90 to 100 | 90 to 100 | ≤ 30 | ≤ 30 | – | – | – | – | 80 to 89 | ≤ 30 |
| CCOC(=O)C(C#N)NC(=O)c1sc(Br)c(Br)c1C (stereo not shown) [I.077] | 3.22 | – | 80 to 89 | 90 to 100 | 90 to 100 | ≤ 30 | > 2 | > 2 | 80 to 89 | 70 to 79 | 90 to 100 | 90 to 100 | ≤ 30 | ≤ 30 | 90 to 100 | – | – | 80 to 89 | 80 to 89 | ≤ 30 |
| Cc1c(C(=O)NC(C(=O)O)C2CC2)sc(Br)c1Br (stereo not shown) [I.080, cyclopropyl{[(4,5-dibromo-3-methyl-2-thienyl)carbonyl]amino}acetic acid] | – | 2.67 | – | 90 to 100 | 90 to 100 | ≤ 30 | > 2 | > 2 | 70 to 79 | – | – | 90 to 100 | ≤ 30 | ≤ 30 | 70 to 79 | – | – | – | – | ≤ 30 |
| COC(=O)C(NC(=O)c1sc(Cl)c(Cl)c1C)C1CC1 (stereo not shown) [I.081, methyl cyclopropyl{[(4,5-dichloro-3-methyl-2-thienyl)carbonyl]amino}acetate] | – | 3.31 | 80 to 89 | 90 to 100 | 90 to 100 | ≤ 30 | > 2 | > 2 | – | – | 90 to 100 | 90 to 100 | ≤ 30 | ≤ 30 | 80 to 89 | – | 70 to 79 | – | – | ≤ 30 |

Continued, in another order:

| chromatographic logP ([6]; method [a]) | chromatographic logP [6, 9] | SMILES | pest or weed control at 31 ppm [1] [%] | pest or weed control at 125 ppm [1] [%] | pest or weed control at 500 ppm [1] [%] | inhibition at 5 ppm [2] [%] | fold induction at 75 ppm [3] | fold induction at 300 ppm [3] | pest or weed control at 500 ppm [4] [%] | pest or weed control at 31 ppm [5] [%] | pest or weed control at 125 ppm [5] [%] | pest or weed control at 500 ppm [5] [%] | inhibition at 5 ppm [7] [%] | inhibition at 20 ppm [7] [%] | pest or weed control at 500 ppm [8] [%] | pest or weed control at 31 ppm [4] [%] | pest or weed control at 125 ppm [4] [%] | pest or weed control at 31 ppm [8] [%] | pest or weed control at 125 ppm [8] [%] | inhibition at 20 ppm [2] [%] |
| --- | --- | --- | --- | --- | --- | --- | --- | --- | --- | --- | --- | --- | --- | --- | --- | --- | --- | --- | --- | --- |
| 2.59 | – | Cc1c(C(=O)NC(C(=O)O)C2CC2)sc(Cl)c1Cl (stereo not shown) [I.095] | 80 to 89 | 90 to 100 | 90 to 100 | ≤ 30 | > 2 | > 2 | 80 to 89 | 80 to 89 | 90 to 100 | 90 to 100 | ≤ 30 | ≤ 30 | – | – | 70 to 79 | – | 70 to 79 | ≤ 30 |
| 3.08 | – | COC(=O)CC[C@H](NC(=O)c1sc(Cl)c(Cl)c1C)C(=O)OC [I.122] | 90 to 100 | 90 to 100 | 90 to 100 | ≤ 30 | > 2 | > 2 | 80 to 89 | – | – | 90 to 100 | ≤ 30 | ≤ 30 | 80 to 89 | 70 to 79 | 80 to 89 | ≥ 70 | 70 to 79 | ≤ 30 |
